Like-named read-outs stand apart in the source and are kept apart here.
How the values were obtained:
[1] = target: human KOPR (hKOPR) (Homo sapiens (Human), UniProt P41145); format: binding
[2] = target: hKOPR (Homo sapiens (Human), UniProt P41145); test: biochemical; conditions: for Emax: read-out: Efficacy (Percent of the maximal effect of U50,488H)
[3] = Forced swim test (FST); format: in vivo; conditions: rats
Experimental: The FST is a two day procedure in which rats swim under conditions in which escape is not possible. On the first day, the rats are forced to swim for 15 minutes. The rats initially search for an escape from the water, but eventually adopt a posture of immobility in which they make only the movements necessary to keep their heads above water. Upon re-testing one day later, latencies to become immobile (an indicator of how rapidly the rats “give up” in response to a familiar stressor) are decreased, which is inferred as despair. Standard antidepressants such as desipramine (DMI) and fluoxetine (FLX) extend latencies to become immobile. Drug efficacy in this animal model is predictive of antidepressant efficacy in humans. The FST has been described by Mague et al., J. Pharmacol. Exp. Ther. 305:323 (2003).

[4] = Intracranial self-stimulation (ICSS); format: in vivo; conditions: 1.0 mg/kg, IP, rats, 1-hour test sessions
[5] = Locomotor activity; format: in vivo; conditions: rats

SMILES | Ki [1] [nM] | EC50 ([2]; read-out: EC50) [nM] | Emax [2] [%] | Efficacy (Percent of the maximal effect of U50,488H) [2] [%] | EC50 [2] [nM] | effect in the forced swim test [3] | ICSS thresholds [4] | effect on locomotor activity [5]
C=Cc1occc1[C@@H]1C[C@]2(C)[C@H]3C(=O)[C@@H](OC(C)=O)C[C@@H](C(=O)OC)[C@]3(C)CC[C@H]2C(=O)O1 [Compound 3] | 7.1 ± 0.1 | 4.6 ± 0.1 | 120 ± 6 | – | – | – | – | –
COC(=O)[C@@H]1C[C@H](OC(C)=O)C(=O)[C@H]2[C@@]1(C)CCC1C(=O)O[C@H](C(=O)O)C[C@@]12C (some centres unmarked) [Compound 7] | 55 ± 23 | 167 ± 35 | – | 99 ± 1 | – | – | – | –
COC[C@@H]1C[C@]2(C)[C@H]3C(=O)[C@@H](OC(C)=O)C[C@@H](C(=O)OC)[C@]3(C)CC[C@H]2C(=O)O1 [Compound 9] | 498 ± 71 | 330 ± 30 | 98 ± 2 | – | – | – | – | –
CCOC[C@@H]1C[C@]2(C)[C@H]3C(=O)[C@@H](OC(C)=O)C[C@@H](C(=O)OC)[C@]3(C)CC[C@H]2C(=O)O1 [Compound 10] | 497 ± 13 | – | – | – | > 1000 | – | – | –
COC(=O)[C@@H]1C[C@H](OC(C)=O)C(=O)[C@H]2[C@@]1(C)CC[C@H]1C(=O)O[C@H](COC(C)=O)C[C@]21C [Compound 11] | 555 ± 97 | 299 ± 13 | 113 ± 3 | – | – | – | – | –
COC(=O)[C@@H]1C[C@H](OC(C)=O)C(=O)[C@H]2[C@@]1(C)CC[C@H]1C(=O)O[C@H](C(=O)c3cccs3)C[C@]21C [Compound 13] | 38 ± 10 | 101 ± 6 | 103 ± 1 | – | – | – | – | –
COC(=O)[C@@H]1C[C@H](OC(C)=O)C(=O)[C@H]2[C@@]1(C)CC[C@H]1C(=O)O[C@H](C(=O)c3cnccn3)C[C@]21C [Compound 16] | 83 ± 28 | 195 ± 6 | 103 ± 3 | – | – | – | – | –
COC(=O)[C@@H]1C[C@H](OC(C)=O)C(=O)[C@H]2[C@@]1(C)CC[C@H]1C(=O)O[C@H](C(O)c3ccco3)C[C@]21C (some centres unmarked) [Compound 17] | 20 ± 2 | 36 ± 5 | 114 ± 4 | – | – | – | – | –
COC(=O)[C@@H]1C[C@]2(C)[C@H]3C(=O)[C@@H](OC(C)=O)C[C@@H](C(=O)OC)[C@]3(C)CC[C@H]2C(=O)O1 [Compound 18] | 154 ± 27 | 361 ± 25 | 99 ± 2 | – | – | – | – | –
CCOC(=O)[C@@H]1C[C@]2(C)[C@H]3C(=O)[C@@H](OC(C)=O)C[C@@H](C(=O)OC)[C@]3(C)CC[C@H]2C(=O)O1 [Compound 19] | 196 ± 23 | 508 ± 8 | 94 ± 2 | – | – | – | – | –
COC(=O)[C@@H]1C[C@H](OC(C)=O)C(=O)[C@H]2[C@@]1(C)CC[C@H]1C(=O)O[C@H](C(=O)OC(C)C)C[C@]21C [Compound 20] | 109 ± 12 | 337 ± 54 | 94 ± 2 | – | – | – | – | –
COC(=O)[C@@H]1C[C@H](OC(C)=O)C(=O)[C@H]2[C@@]1(C)CC[C@H]1C(=O)O[C@H](c3ccoc3)C[C@]21C [Salvinorin A, salvinorin A] | – | – | – | – | – | depressive-like effects | significantly elevated | without affecting locomotor activity
